According to paper PMC7925398, “Exploring the Therapeutic Potenital of the Leaderless Enterocins K1 and EJ97 in the Treatment of Vancomycin-Resistant Enterococcal Infection” (Frontiers in Microbiology, 2021):
≈ marks a conversion by molar mass, not a printed value. Read-outs that look alike come from different tables or passages of the source. Where a SMILES comes first, the peptide text is derived from it. Where no end group is shown, it is not given here.

Experiments:
[1] = system: E. faecium LMGT 20705 and E. faecium 42 ACA-D6 0237; experiment: Effect of autoclaving on antibacterial activity, E. faecium; assay type: cell-based, Enterococcus faecium; conditions: in MilliQ water with 0.1% TFA, standard autoclaving; MIC against E. faecium LMGT 20705 and 42 ACA-D6 0237
Text: (§1) A pre-requisite for intravenous administration is complete sterility of the compound ([Paese et al., 2017]). The simplest manner to achieve this is through autoclaving. However, this can cause degradation of the compound and therefore be detrimental to the antibacterial effect. Also, if the compound is degraded into unknown constituents this may cause unintended interactions. Therefore, we exposed the bacteriocins to a standard autoclaving procedure.
(§2) Each bacteriocin was solved in MilliQ water with 0.1% TFA and then autoclaved. […] Strains: 20705 is short for E. faecium LMGT 20705; 0237 for E. faecium 42 ACA-D6 0237; D6 for E. faecalis D6; and MMH594 for E. faecalis MMH594.

[2] = system: bacteriocin-resistant enterococcal cells (eep-mutants); conditions: colonies from inhibition zones of spot-on-lawn assay; 'mostly above'; cross-resistant
Description: Bacteriocin resistant mutants were obtained by a spot-on-lawn assay, where liquid bacteriocin was spotted on a lawn of indicator cells, using 10μl of bacteriocin in concentrations 0.5–5 mg/ml. The plates were incubated at 30°C overnight and resistant colonies were selected from the inhibition zones and re-streaked on new plates for isolated colonies. Pure cultures were made and stored in 15% glycerol at −80°C. The eep gene was PCR amplified and sequenced with specific primers: eep in E. faecium was amplified using primers Eepf4F + Eepf4R and sequenced using primers Eepf1R - Eepf6R and Eepf1F - Eepf6F. eep in E. faecalis was amplified using primers Eepfa1R + Eepfa3F and sequenced using primers Eepfa1R - Eepfa3R, Eepf1R - Eepf3R and Eepfa1F - Eepfa3F.
The samples were sent to GATC Biotech, Germany for sequencing. MIC of the resistant mutants was scored using a microtiter assay as previously described ([Holo et al., 1991]).

E. faecium = conditions: three parallels
Description: (§3) Unless otherwise specified the bacterial strains were grown in brain heart infusion (BHI) medium (Oxoid) at 37°C under aerobic conditions without shaking.
(§4) The peptides were stored at −20°C until use. The amino acid sequences of the bacteriocins are […] RPVA and […] […] Bacteriocin activity was determined using a microtiter assay as previously described ([Holo et al., 1991]).

[3] = Antibacterial effect (MIC) after incubation in blood, plasma or saline; assay type: cell-based; conditions: for MIC in blood: 1 mg/ml added to whole human blood (EDTA); for MIC in plasma after 8 h / MIC in plasma at 48 h: human plasma; for MIC in plasma after 8 h / MIC in saline after 8 h / MIC in blood after 8 h: 8 h incubation at 37°C; for MIC in plasma at 48 h / MIC in saline at 48 h / MIC in blood at 48 h: 48 h incubation at 37°C; for MIC in blood after 8 h / MIC in blood at 48 h: whole human blood (EDTA), 1 mg/ml; for MIC in blood compared to saline (fold higher): whole human blood vs saline
Description: To test whether the antibacterial effect of the bacteriocins was reduced in blood, an assay was performed where whole blood was collected from two healthy volunteers, with EDTA as an anticoagulant. Directly after blood sampling each bacteriocin was added to a concentration of 1mg/ml. […] Samples were collected at specific time points and bacteriocin activity was determined using the standard MIC assay as previously described ([Holo et al., 1991]). The experiment was repeated three times and the error bars represent the standard deviation.
The presented MIC values are the average of three experiments. Each bacteriocin was added to whole human blood to reach a concentration of 1 mg/ml. […] RT is short for room temperature.

human erythrocytes = experiment: Haemolysis assay; conditions: for Visual haemolysis (redness of supernatant compared to saline): 1 mg/ml in saline; for Visual haemolysis (redness of supernatant compared to saline) / Haemolysis of erythrocytes: 37°C; for Haemolysis of erythrocytes: 0.01, 0.1 and 1 mg/ml in saline, washed human erythrocytes (two volunteers, pooled), 1 h, supernatant absorbance 540 nm, repeated three times
Description: To assess the haemolytic effect whole blood was drawn from two healthy human volunteers, pooled and distributed in 1 ml aliquots. The aliquots were spun down at 1,000 × g for 5 min at 4°C to separate erythrocytes from plasma. The erythrocytes were washed three times with saline (0.9% NaCl) and resuspended in 100 μl saline. […] SDS in saline was added as a control, since bacteriocins were solved in saline. The samples were incubated at 37°C for 1 h and then spun down again to remove intact erythrocytes. The supernatant was measured for absorbance at 540 nm in order to measure degree of haemolysis. […] The experiment was repeated three times to allow for statistical analysis.
Whole human blood was mixed with each bacteriocin in saline to a final concentration of 1, 0.1, and 0.01 mg/ml. The samples were incubated at 37°C before the erythrocytes were spun down and the supernatant was read at OD540.

[4] = system: E. faecium wildtype and eep-mutant strains; experiment: Lysozyme tolerance MIC assay; assay type: cell-based, Enterococcus faecium
Description: To test for lysozyme tolerance the wild type and mutant strains were grown over night and subjected to a standard MIC assay as previously described with twofold dilutions of lysozyme ([Holo et al., 1991]). In addition, a spot-on-lawn assay was performed with 10 μl 250 mg/ml lysozyme spotted on a lawn of cells.

[5] = system: E. faecalis D6 and E. faecalis MMH594; experiment: Effect of autoclaving on antibacterial activity, E. faecalis; assay type: cell-based, Enterococcus faecalis; conditions: in MilliQ water with 0.1% TFA, standard autoclaving; MIC against E. faecalis D6 and MMH594
Text: as §1, §2

E. faecalis = conditions: MIC = at least 50% growth inhibition, three parallels
Description: as §3, §4

[6] = starting value (time not given), average of three experiments

CC[C@H](C)[C@H](NC(=O)[C@H](CCC(=O)O)NC(=O)[C@H](Cc1ccc(O)cc1)NC(=O)[C@H](CCC(N)=O)NC(=O)[C@@H](NC(=O)[C@H](CC(C)C)NC(=O)[C@H](CCCCN)NC(=O)[C@H](CCCCN)NC(=O)[C@@H](NC(=O)[C@@H](NC(=O)[C@@H](NC(=O)CNC(=O)[C@@H](NC(=O)[C@@H]1CCCN1C(=O)[C@H](CC(N)=O)NC(=O)[C@H](Cc1ccccc1)NC(=O)[C@H](CCCCN)NC(=O)[C@H](Cc1ccccc1)NC(=O)[C@H](CCCCN)NC(=O)[C@@H](N)CCSC)[C@@H](C)O)[C@@H](C)O)[C@@H](C)CC)C(C)C)[C@@H](C)O)C(=O)N[C@@H](C)C(=O)N[C@@H](Cc1c[nH]c2ccccc12)C(=O)N[C@@H](Cc1ccccc1)C(=O)N[C@@H](CCCCN)C(=O)N[C@@H](CC(N)=O)C(=O)N[C@@H](CCCCN)C(=O)N[C@@H](Cc1c[nH]cn1)C(=O)NCC(=O)N[C@@H](Cc1ccc(O)cc1)C(=O)N[C@@H](Cc1ccc(O)cc1)C(=O)N1CCC[C@H]1C(=O)N[C@@H](Cc1c[nH]c2ccccc12)C(=O)N[C@@H](CCC(=O)O)C(=O)N[C@H](C(=O)N1CCC[C@H]1C(=O)N[C@@H](CCCNC(=N)N)C(=O)N[C@@H](CS)C(=O)O)[C@@H](C)CC [EntK1, enterocin K1] (H-MKFKFNPTGTIVKKLTQYEIAWFKNKHGYYPWEIPRC-OH; N-terminus and C-terminus assumed)
Effect of autoclaving on MIC [1]: did not affect
MIC against cells from resistant colonies [2]: above 25 μg/ml
MIC of EntK1 (E. faecium; strain E1469 (N, nosocomial), MIC = at least 50% growth inhibition): 0.39 µg/mL
MIC of EntK1 (E. faecium; strain E3160 (N, nosocomial), MIC = at least 50% growth inhibition): 0.39 µg/mL
MIC of EntK1 (E. faecium; strain E3449 (N, nosocomial), MIC = at least 50% growth inhibition): 0.39 µg/mL
MIC of EntK1 (E. faecium; strain E6072 (N, nosocomial), MIC = at least 50% growth inhibition): 0.19 µg/mL
MIC of EntK1 (E. faecium; strain E6094 (N, nosocomial), MIC = at least 50% growth inhibition): 0.39 µg/mL
MIC of EntK1 (E. faecium; strain E6856 (N, nosocomial), MIC = at least 50% growth inhibition): 0.39 µg/mL
MIC of EntK1 (E. faecium; strain E7195 (N, nosocomial), MIC = at least 50% growth inhibition): 0.39 µg/mL
MIC of EntK1 (E. faecium; strain E7422 (N, nosocomial), MIC = at least 50% growth inhibition): 0.19 µg/mL
MIC of EntK1 (E. faecium; strain E7660 (N, nosocomial), MIC = at least 50% growth inhibition): 0.39 µg/mL
MIC of EntK1 (E. faecium; strain E8150 (N, nosocomial), MIC = at least 50% growth inhibition): 0.78 µg/mL
MIC of EntK1 (E. faecium; strain LMGT 20705 (L, laboratory), MIC = at least 50% growth inhibition): <0.048 µg/mL
MIC of EntK1 (E. faecium; strain P21 (L, laboratory), MIC = minimum concentration inhibiting growth by at least 50% vs control, 200 μl culture): <0.048 µg/mL
MIC in blood [3, 6]: 0.78 µg/mL (≈ 0.171 µM)
MIC in saline ([3]; 1 mg/ml in saline, first value (time not given), indicator strain not stated, average of three experiments): 0.19 µg/mL (≈ 0.0416 µM)
MIC in plasma ([3]; added to human plasma, starting value (time not given), average of three experiments): 0.78 µg/mL (≈ 0.171 µM)
MIC in plasma after 8 h ([3]; average of three experiments): 0.78 µg/mL (≈ 0.171 µM)
MIC in plasma at 48 h ([3]; average of three experiments): 1.56 µg/mL (≈ 0.342 µM)
MIC in saline after 8 h ([3]; average of three experiments): stayed at the same level
MIC in saline at 48 h ([3]; average of three experiments): 0.39 µg/mL (≈ 0.0854 µM)
MIC ratio blood to plasma ([3]; same at all time points, 37°C): 2 ×
MIC ratio plasma to saline ([3]; same at all time points, 37°C): 2 ×
MIC in blood after 8 h ([3]; average of three experiments): approximately 1.56 μg/ml
MIC in blood at 48 h ([3]; average of three experiments): 3.125 µg/mL (≈ 0.685 µM)
MIC in blood compared to saline (fold higher) ([3]; 37°C): 4 ×
Visual haemolysis (redness of supernatant compared to saline) (human erythrocytes): did not cause haemolysis
Haemolysis of erythrocytes (human erythrocytes): non-haemolytic

CCCCCCCCCCCCOS(=O)(=O)[O-].[Na+] [SDS, reference compound]
Visual haemolysis (redness of supernatant) (human erythrocytes): complete haemolysis

Lysozyme
Lysozyme MIC ([4]; E. faecium 7422c.522del (M, eep-mutant)): 1950 µg/mL
Lysozyme MIC ([4]; E. faecium 7422c.C64A (M, eep-mutant)): 1950 µg/mL
Lysozyme MIC ([4]; E. faecium E7422 (WT)): 15630 µg/mL
Lysozyme MIC ([4]; E. faecium P21 (WT), twofold dilutions of lysozyme): 15630 µg/mL
Lysozyme MIC ([4]; E. faecium P21c.G716A (M, eep-mutant)): 980 µg/mL
Lysozyme MIC ([4]; E. faecium P21c.ins7 (M, eep-mutant)): 980 µg/mL
Lysozyme MIC ([4]; E. faecium P21c.ins23 (M, eep-mutant)): 980 µg/mL
Lysozyme MIC ([4]; E. faecium P21c.ins43 (M, eep-mutant)): 980 µg/mL
Lysozyme MIC, wildtype strains ([4]; wildtype strains P21 and E7422): 15630 µg/mL

CC1(C)S[C@@H]2[C@H](NC(=O)[C@H](N)c3ccccc3)C(=O)N2[C@H]1C(=O)O [Ampicillin, reference compound]
MIC in blood [3, 6]: 1.56 µg/mL (≈ 4.46 µM)
Loss of activity after 48 h incubation ([3]; 48 h incubation at 37°C in blood and similar conditions): fourfold

MLAKIKAMIKKFPNPYTLAAKLTTYEINWYKQQYGRYPWERPVA [EntEJ97, enterocin EJ97]
Effect of autoclaving on MIC [5]: did not affect
MIC against cells from resistant colonies [2]: above 25 μg/ml
MIC of EntEJ97 (E. faecalis; strain 62 (L, laboratory)): 1.56 µg/mL
MIC of EntEJ97 (E. faecalis; strain D6 (L, laboratory)): 0.39 µg/mL
MIC of EntEJ97 (E. faecalis; strain HH22 (N, nosocomial)): 1.56 µg/mL
MIC of EntEJ97 (E. faecalis; strain MMH594 (N, nosocomial)): 0.39 µg/mL
MIC of EntEJ97 (E. faecalis; strain Merz96 (N, nosocomial)): 0.78 µg/mL
MIC of EntEJ97 (E. faecalis; strain OG1RF (L, laboratory)): 0.78 µg/mL
MIC of EntEJ97 (E. faecalis; strain Symbioflor (B, probiotic)): 0.39 µg/mL
MIC of EntEJ97 (E. faecalis; strain T3 (N, nosocomial)): 0.39 µg/mL
MIC of EntEJ97 (E. faecalis; strain TX0104 (N, nosocomial)): 0.39 µg/mL
MIC of EntEJ97 (E. faecalis; strain V583 (N, nosocomial; carries EntEJ97 immunity gene)): >25 µg/mL
MIC in plasma after 8 h ([3]; average of three experiments): 0.78 µg/mL
MIC in plasma at 48 h ([3]; average of three experiments): 1.56 µg/mL
MIC in saline after 8 h ([3]; average of three experiments): 0.39 µg/mL
MIC in saline at 48 h ([3]; average of three experiments): 0.78 µg/mL
MIC in blood after 8 h ([3]; average of three experiments): 1.56 µg/mL
MIC in blood at 48 h ([3]; average of three experiments): 3.125 µg/mL
MIC in blood compared to saline (fold higher) ([3]; 37°C): 2 ×
Visual haemolysis (redness of supernatant compared to saline) (human erythrocytes): did not cause haemolysis
Haemolysis of erythrocytes (human erythrocytes): non-haemolytic
